{"source": "patent US20080085273A1", "about": "“VEHICLE FOR THE TRANSPORT OF A CHOSEN MOLECULE TO A CELL” (Synvolux IP B.V., priority 2004, published 2008)", "tested_on": "Human Embryonic Kidney cells, strain 293A", "experiment": "Transfection of Human Embryonic Kidney cells with CMV-GFP plasmid complexed with SAINT-molecules, GFP expression by FACS", "format": "cell-based", "conditions": "293A cells, 12 well plates; 500 ng CMV-GFP plasmid complexed with 3.75 nm SAINT molecules or linker per well; FACS 48 hours after transfection", "from_the_text": "FIG. 1 is the result of Human Embryonic Kidney cells, strain 293A, cultured in 12 well plates and are transfected with 4 combinations of SAINT-molecules (i.e. SAINT-18, SAINT-18 coupled to RGD, a mixture of SAINT-18 and SAINT-18 coupled to RGD, and SAINT-18 linker).\nHuman Embryonic Kidney cells are difficult to be transfected. When using these cells, main competing transfection methods (of other manufacturers), require several micrograms of plasmid DNA for successful transfection. Combined with SAINT-18, 1 μg (per 12 wells) normally results in a transfection rate above 90%. To be able to visualize the enhancing effect of the targeting moiety SAINT-18-RGD, in this protocol we used a low amount of plasmid DNA (500 ng per 12 wells). The structural formula of SAINT-linker-RGD is depicted in […]. In addition, an RGD-peptide is coupled to the SATA-group of the SAINT-Linker, as described in the present invention. The RGD group is a targeting moiety for the integrin receptor family and is though to increase the transfection efficacy. Human Embryonic Kidney cells, strain 293A, are cultured in 12 well plates and are transfected with 4 combinations of Saint-molecules (i.e. SAINT-18, SAINT-18 coupled to RGD, a mixture of SAINT-18 and SAINT-18 coupled to RGD, and only a linker molecule as a reference). […] 48 hours after transfection GFP expression is measured by FACS analysis. […]"}
{"smiles": "CCCCCCCC/C=C\\CCCCCCCCC(CCCCNC(=O)C1CCC(CN2C(=O)CC(SCC(=O)NC(=N)NCCCC(C)C(=O)NCC(=O)NC(CC(=O)O)C(=O)O)C2=O)CC1)c1cc[n+](C)cc1.[Cl-]", "note": "(stereo not shown) [S18/RGD]", "values": [{"measurement": "transfection ability (percentage of GFP positive cells, FIG. 1, result in words)", "result": "able to transfect cells"}]}
